Entries after “also recorded” stand apart in the source; their conditions may differ.
Experiments:
Assay type in all cases: cell-based, human
VTA-like spheroids [1] = test: Confocal (Phenix Plus) calcium recordings, opioid use disorder model; conditions: VTA-like spheroids expressing GCaMP6f; 10 μM DAMGO; day 21
Procedure: (§1) Confocal Imaging: The Opera Phenix Plus High-Content Imaging System (Perkin Elmer) spinning disk confocal was used to record calcium activity from spheroids in individual wells. Prior to recording, the stage was pre-warmed to 37° C., and the carbon dioxide was set to 5%. Recordings were obtained both from spheroids expressing GCaMP6f along with those incubated in Cal6 dye. Recordings were captured with a 20× water immersion objective […] from the bottom of the well, and were obtained at a frame rate of 1.6 frames/sec with 480 frames total, making the recordings 5-min. The protocol was set to record well to well such that recordings were automated but taken from one spheroid at a time before recording from subsequent wells. […]
(§2) For peak detection data obtained from the Phenix Plus confocal microscope, image sequences were stored in and exported from Columbus Image Data Storage and Analysis as single plane TIFFs. […] Prior to peak detection analysis, the T-function, F div F0, in ImageJ was used to obtain calcium signals normalized to background fluorescence. […] The correlation matrix was used to describe how synchronous the calcium activity within a spheroid was, and a synchrony score was measured by calculating the average correlation coefficient across the matrix. […]

PFC-like spheroids [2] = test: as above; conditions: PFC-like spheroids expressing GCaMP6f; 10 μM DAMGO; day 21
Procedure: as §1, §2

[3] = test system: PFC-like and VTA-like spheroids; test: 3D Cell Titer Glo spheroid viability; conditions: no DAMGO pre-treatment vs chronic DAMGO vs DAMGO withdrawal
Procedure: 3D Cell Titer Glo: To measure spheroid cell viability across disease models and after compound treatment, the CellTiter-Glo 3D Cell Viability Assay (Promega, cat #G9681) was used according to the manufacturer's instructions. CellTiter-Glo 3D Reagent was thawed overnight at 4° C. and brought to room temperature (RT) for 20-min before use. After the FLIPR assay, 30 μL of CellTiter-Glo 3D Reagent was added to the spheroid plate and was mixed by shaking for 5-min at RT followed by a 25-min incubation period off the shaker at RT (about 25° C.). Luminescence was read using a PHERAstar FSX microplate reader (BMG LabTech) to measure amount of ATP present, indicating metabolically active cells.

VTA-like spheroids [4] = test: FLIPR calcium activity with Cal6 dye, control compounds / DAMGO (Example 3); conditions: VTA-like spheroids in Cal6 dye; 10 μM DAMGO; day 21
Procedure: (§3) Viruses and dyes: To assess calcium activity, the calcium dye, Cal6 (Molecular Devices), and genetically encoded calcium indicator, GCaMP6f (Addgene, cat #100836-AAV9) were used. Cal6 was used according to manufacturer's instructions and 10 mL of maintenance media was added to each vial. Two hours before activity was recorded, half of the spheroid media was exchanged for media with Cal6. The plates were covered in foil and placed in the incubator at 37° C. during the 2-hour (hr) incubation period. Since all viruses used were adeno-associated viruses (AAV), they were added to the media on day 7 to allow for 2-weeks expression prior to recording or testing. All viruses were added to the media at 2e5 multiplicity of infection (MOI). GCaMP6f infection occurred via an adeno-associated virus serotype 9 (AAV9) expressed under the CAG promoter for expression in both neurons and astrocytes. Designer receptors exclusively activated by designer drugs (DREADDs) viruses were used to stimulate and inhibit neuronal activity within spheroids. Both viruses were retrograde AAVs expressed under the human Synapsin promoter for expression in neurons and fused with an mCherry fluorophore. The DREADDs viruses either inserted the designer receptor hM4D(Gi), an inhibitory G-protein coupled receptor, or hM3D(Gq), a stimulatory G-protein coupled receptor. Clozapine-N-oxide (CNO, Tocris cat #4936) was suspended in dimethyl sulfoxide (DMSO) and used as the designer drug to activate the DREADDs viruses. CNO was tested at 1 and 10 μM, with data reported from the 1 μM concentration.
(§4) Fluorescent Imaging plate Reader (FLIPR): The FLIPR Penta (Molecular Devices) was used to assess calcium fluorescence across the 384-well plate simultaneously and to observe changes after treatment with compounds. The evening before calcium activity was measured, plates were sealed with parafilm and centrifuged at 1485×g for 2-min to get spheroids to the bottom of the well in a centered position. On the day of recording, the plate used for recording was placed in the read plate position inside of the FLIPR following the 2-hour Cal6 incubation at 37° C. Standard filter sets were used for Cal6 imaging with excitation set at 470-495 and emission at 515-575 nm. Fluorescent image reads were taken every 0.6 seconds for all plates, with exposure time of 0.03 and 50% excitation intensity. Recordings from the initial seven plates consisted of 1000 reads and were 10-min recordings with 2.5 gain, while the final two plates consisted of 500 reads (5-min recordings) with a gain of 2. Baseline recordings were taken across all plates and, if applicable, more recordings were obtained 1-, 30-, 60-, and/or 90-min after compound treatment. In between recordings, plates were wrapped in foil and placed back in the incubator at 37° C.
DAMGO was reconstituted in water at a 1 mM concentration and diluted in media to 20 µM such that spheroids would be treated with a final concentration of 10 μM after the half media exchange. Two aspects of OUD were modeled, chronic treatment along with opioid withdrawal. […]
384 Pin Tool: A 384 well pin tool (Rexroth) was used to transfer compounds simultaneously to the spheroid plate. […] Compound transfer via the 384 well pin tool occurred after the baseline recordings with the fluorescent imaging plate reader (FLIPR). […]

PFC-like spheroids [5] = test: FLIPR calcium activity with Cal6 dye, control compounds / DAMGO / AD compounds (Example 3); conditions: 10 μM DAMGO; for effect on peak count and peak spacing: recording 30-min later, then naloxone
Procedure: as §3, §4
DAMGO was reconstituted in water at a 1 mM concentration and diluted in media to 20 µM such that spheroids would be treated with a final concentration of 10 μM after the half media exchange. Two aspects of OUD were modeled, chronic treatment along with opioid withdrawal. For spheroids subjected to chronic DAMGO treatment, 20 μM DAMGO in maintenance media was added via half media exchange beginning on day 10, with treatments occurring every other day for 10 days, giving a total of five treatments.
384 Pin Tool: A 384 well pin tool (Rexroth) was used to transfer compounds simultaneously to the spheroid plate. Prior to compound transfer, the pin tool went through four wash cycles where pins were rinsed with dimethyl sulfoxide (DMSO), followed by methanol, then deionized (DI) water, to ensure the pins were clean. Compound transfer via the 384 well pin tool occurred after the baseline recordings with the fluorescent imaging plate reader (FLIPR). Here, 60 nL of compound suspended in DMSO was transferred to 60 µL of media in each well, diluting the compounds by 1000-fold and giving a final DMSO concentration of 0.1%.

Question: How did the “effect of chronic DAMGO / DAMGO withdrawal on baseline peak count, amplitude, width, synchrony (confocal)” value (VTA-like spheroids [1]) turn out when `C[C@@H](NC(=O)[C@@H](N)Cc1ccc(O)cc1)C(=O)NCC(=O)N(C)[C@@H](Cc1ccccc1)C(=O)NCCO` [DAMGO, [D-Ala^2, N-MePhe^4, Gly-ol]-enkephalin] was run?
Answer: The value was “increased by DAMGO withdrawal in VTA-like spheroids; also recorded: DAMGO withdrawal reduced peak amplitude in VTA-like but not PFC-like spheroids; also recorded: Chronic DAMGO increased peak width in PFC-like but not VTA-like spheroids; also recorded: DAMGO withdrawal did not impact peak width in either spheroid type; also recorded: DAMGO withdrawal reduced synchrony in VTA-like spheroids”.

Question: And the “effect of chronic DAMGO / DAMGO withdrawal on baseline peak count, amplitude, width, synchrony (confocal)” value (PFC-like spheroids [2])?
Answer: Its value is “peak count was reduced by chronic DAMGO treatment in PFC-like spheroids; also recorded: synchrony was unaffected in PFC-like spheroids; also recorded: DAMGO withdrawal reduced peak amplitude in VTA-like but not PFC-like spheroids; also recorded: Chronic DAMGO increased peak width in PFC-like but not VTA-like spheroids; also recorded: DAMGO withdrawal did not impact peak width in either spheroid type”.

Question: What about the “spheroid viability (3D CTG)” value [3] of the same compound?
Answer: The value was “spheroid viability was similar”.

Question: And the “effect of chronic DAMGO / DAMGO withdrawal on baseline peak count, amplitude, width (FLIPR)” value (VTA-like spheroids [4])?
Answer: The value was “chronic DAMGO treatment increased peak count in VTA-like spheroids; also recorded: unaffected in VTA-like spheroids; also recorded: reduced in VTA-like spheroids”.

Question: And the “effect on peak count and peak spacing” value (PFC-like spheroids [5]; PFC-like chronic DAMGO-treated spheroids)?
Answer: Its value is “chronic DAMGO-treated spheroids treated with either DMSO or DAMGO showed significant reductions in peak count”.

Question: And the “effect on peak count and peak spacing” value (PFC-like spheroids [5]; PFC-like control spheroids)?
Answer: The value was “significant reduction in peak count was observed in control spheroids acutely treated with DAMGO; also recorded: acute DAMGO treatment in control spheroids increased peak spacing”.

Question: What about the “effect of chronic DAMGO / DAMGO withdrawal on baseline peak count, amplitude, width (FLIPR)” value (PFC-like spheroids [5]; PFC-like spheroids in Cal6 dye, day 21) of the same compound?
Answer: Its value is “peak count was reduced by chronic DAMGO in PFC-like spheroids; also recorded: Peak amplitude was reduced by DAMGO withdrawal in PFC-like spheroids; also recorded: peak width was increased by chronic DAMGO in PFC-like spheroids”.
